Results from patent publication US20260131009A1, “BIFUNCTIONAL PI3K-ALPHA INHIBITORS AND USES THEREOF” (Relay Therapeutics, Inc., priority 2021, published 2026).
pIC50: −log10 of the molar value.

target: PI3Kα (Homo sapiens, UniProt P42336, H1047R); test: ADP-Glo IC50 assay; assay type: biochemical; settings: class symbols; key not given
Sequence (P42336 whole entry H1047R): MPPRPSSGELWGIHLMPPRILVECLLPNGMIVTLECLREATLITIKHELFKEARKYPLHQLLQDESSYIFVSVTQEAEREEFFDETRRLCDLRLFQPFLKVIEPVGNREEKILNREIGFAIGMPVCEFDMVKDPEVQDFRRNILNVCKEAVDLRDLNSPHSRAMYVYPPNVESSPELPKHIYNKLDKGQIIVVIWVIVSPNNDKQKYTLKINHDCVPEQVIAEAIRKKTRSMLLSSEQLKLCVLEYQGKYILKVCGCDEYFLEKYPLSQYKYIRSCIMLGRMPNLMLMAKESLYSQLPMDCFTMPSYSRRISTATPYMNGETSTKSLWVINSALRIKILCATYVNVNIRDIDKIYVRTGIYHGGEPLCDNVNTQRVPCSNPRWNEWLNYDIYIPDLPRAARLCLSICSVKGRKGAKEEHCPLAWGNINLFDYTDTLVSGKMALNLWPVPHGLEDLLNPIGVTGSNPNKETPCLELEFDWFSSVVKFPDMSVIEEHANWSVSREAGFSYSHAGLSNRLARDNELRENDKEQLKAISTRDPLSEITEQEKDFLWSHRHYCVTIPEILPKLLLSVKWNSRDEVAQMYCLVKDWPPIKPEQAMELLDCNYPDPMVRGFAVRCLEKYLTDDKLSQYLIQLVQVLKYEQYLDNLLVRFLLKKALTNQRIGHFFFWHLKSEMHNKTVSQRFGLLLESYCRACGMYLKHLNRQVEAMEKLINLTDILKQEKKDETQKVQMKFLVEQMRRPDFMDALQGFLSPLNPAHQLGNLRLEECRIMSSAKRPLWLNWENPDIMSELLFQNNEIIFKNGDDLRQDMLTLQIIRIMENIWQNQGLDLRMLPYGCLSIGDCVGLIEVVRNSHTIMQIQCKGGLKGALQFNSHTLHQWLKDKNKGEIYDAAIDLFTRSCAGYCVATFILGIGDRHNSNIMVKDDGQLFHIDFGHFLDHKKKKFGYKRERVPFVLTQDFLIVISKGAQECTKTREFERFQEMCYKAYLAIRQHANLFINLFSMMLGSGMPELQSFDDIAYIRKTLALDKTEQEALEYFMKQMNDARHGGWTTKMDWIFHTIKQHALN
Sequence (P27986 whole entry partner): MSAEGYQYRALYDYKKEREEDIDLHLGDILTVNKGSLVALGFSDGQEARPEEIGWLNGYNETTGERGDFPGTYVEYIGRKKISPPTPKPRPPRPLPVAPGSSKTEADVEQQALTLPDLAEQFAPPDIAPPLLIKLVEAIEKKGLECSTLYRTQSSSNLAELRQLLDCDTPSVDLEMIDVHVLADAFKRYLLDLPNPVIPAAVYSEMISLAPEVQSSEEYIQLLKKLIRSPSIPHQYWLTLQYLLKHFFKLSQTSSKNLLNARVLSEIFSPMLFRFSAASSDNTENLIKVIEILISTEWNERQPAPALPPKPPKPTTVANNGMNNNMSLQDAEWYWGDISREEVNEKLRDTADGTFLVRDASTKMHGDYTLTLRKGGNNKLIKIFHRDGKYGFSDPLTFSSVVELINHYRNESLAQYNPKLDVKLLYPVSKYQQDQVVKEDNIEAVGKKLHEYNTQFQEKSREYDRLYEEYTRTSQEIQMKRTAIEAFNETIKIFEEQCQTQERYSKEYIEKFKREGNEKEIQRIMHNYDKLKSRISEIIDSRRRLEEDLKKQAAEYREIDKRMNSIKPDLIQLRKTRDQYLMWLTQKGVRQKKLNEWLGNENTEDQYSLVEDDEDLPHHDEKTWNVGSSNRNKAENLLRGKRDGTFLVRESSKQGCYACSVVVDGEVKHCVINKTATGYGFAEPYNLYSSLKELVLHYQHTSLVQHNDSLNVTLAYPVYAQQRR

Row | SMILES | pIC50
1 | Cc1ccccc1Nc1ncc(C(=O)NCCCCCCCNc2cccc3c2C(=O)N(C2CCC(=O)NC2=O)C3=O)cc1NC(=O)c1csc2ccccc12 (stereo not drawn) [Example I-42] | 6.30 to 7.00
2 | Cc1cc(Br)c2oc(N3CCN(C(=O)CCOCCOCCNC(=O)c4cnc(Nc5ccccc5C)c(NC(=O)c5csc6ccccc56)c4)CC3)cc(=O)c2c1 [Example I-91] | 5.00 to 6.00
3 | Cc1cc([C@H](C)Nc2ccccc2C(=O)O)c2oc(N3CCN(C(=O)CCCCCCNc4ccc5c(c4)C(=O)N(C4CCC(=O)NC4=O)C5=O)CC3)cc(=O)c2c1 (stereo partly drawn) [Example I-129] | 5.00 to 6.00
4 | Cc1ccccc1Nc1ncc(C(=O)NCCOCCOCCOCCOCCC(=O)N[C@H](C(=O)N2C[C@H](O)C[C@H]2C(=O)NCc2ccc(-c3scnc3C)cc2)C(C)(C)C)cc1NC(=O)c1csc2ccccc12 [Example I-14] | 6.00 to 6.30
5 | Cc1cc([C@H](C)Nc2ccccc2C(=O)O)c2oc(N3CCN(C(=O)CCCCCNc4ccc5c(c4)C(=O)N(C4CCC(=O)NC4=O)C5=O)CC3)cc(=O)c2c1 (stereo partly drawn) [Example I-128] | 5.00 to 6.00
6 | Cc1cc([C@@H](C)Nc2ccccc2C(=O)O)c2oc(N3CCN(C(=O)CCCCCCCNc4cccc5c4C(=O)N(C4CCC(=O)NC4=O)C5=O)CC3)cc(=O)c2c1 (stereo partly drawn) [Example I-143] | 5.00 to 6.00
7 | Cc1cc(Br)c2oc(N3CCN(C(=O)CCCCCCNC(=O)c4cnc(Nc5ccccc5C)c(NC(=O)c5csc6ccccc56)c4)CC3)cc(=O)c2c1 [Example I-108] | 6.30 to 7.00
8 | Cc1cc([C@H](C)Nc2ccccc2C(=O)O)c2oc(N3CCN(C(=O)CCOCCOCCNC(=O)c4cnc(Nc5ccccc5C)c(NC(=O)c5csc6ccccc56)c4)CC3)cc(=O)c2c1 [Example I-126] | 6.30 to 7.00
9 | Cc1cc([C@H](C)Nc2ccccc2C(=O)O)c2oc(N3CCN(C(=O)CCCCCNc4cccc5c4C(=O)N(C4CCC(=O)NC4=O)C5=O)CC3)cc(=O)c2c1 (stereo partly drawn) [Example I-137] | 5.00 to 6.00
10 | Cc1cc([C@@H](C)Nc2ccccc2C(=O)O)c2oc(N3CCN(C(=O)CCCNc4ccc5c(c4)C(=O)N(C4CCC(=O)NC4=O)C5=O)CC3)cc(=O)c2c1 (stereo partly drawn) [Example I-146] | 5.00 to 6.00
11 | Cc1ncsc1-c1ccc(CNC(=O)[C@@H]2C[C@@H](O)CN2C(=O)[C@@H](NC(=O)CCCCCCCCCNC(=O)c2cc(NC(=O)c3nsc4ccccc34)c3n2CC(=O)N[C@@H]3c2cc(F)ccc2Cl)C(C)(C)C)cc1 [Example I-107] | > 7.00
12 | Cc1ccccc1Nc1ncc(C(=O)N[C@H](CCC(=O)N[C@H](C(=O)N2C[C@H](O)C[C@H]2C(=O)NCc2ccc(-c3scnc3C)cc2)C(C)(C)C)C(O)O)cc1NC(=O)c1csc2ccccc12 [Example I-109] | 5.00 to 6.00
13 | Cc1cc([C@@H](C)Nc2ccccc2C(=O)O)c2oc(N3CCN(C(=O)CCCNc4cccc5c4C(=O)N(C4CCC(=O)NC4=O)C5=O)CC3)cc(=O)c2c1 (stereo partly drawn) [Example I-141] | 6.00 to 6.30
14 | Cc1ccccc1Nc1ncc(C(=O)NCCCC#Cc2ccc3c(c2)CN(C2CCC(=O)NC2=O)C3=O)cc1NC(=O)c1csc2ccccc12 (stereo not drawn) [Example I-44] | 6.30 to 7.00
15 | Cc1ccccc1Nc1ncc(C(=O)NCCOCCOCCOCCOCCOCCOCCC(=O)NCc2ccc3c(c2)CN(C2CCC(=O)NC2=O)C3=O)cc1NC(=O)c1csc2ccccc12 (stereo not drawn) [Example I-52] | 4.00 to 5.00
16 | COC(=O)CCCCCCCCCNC(=O)c1cnc(Nc2ccccc2C)c(NC(=O)c2csc3ccccc23)c1 [Example I-27] | 6.00 to 6.30
17 | Cc1cc([C@@H](C)Nc2ccccc2C(=O)O)c2oc(N3CCN(C(=O)CCCCCNc4ccc5c(c4)C(=O)N(C4CCC(=O)NC4=O)C5=O)CC3)cc(=O)c2c1 (stereo partly drawn) [Example I-132] | 6.00 to 6.30
18 | Cc1ccccc1Nc1ncc(C(=O)NCCOCCOCCC(=O)N[C@H](C(=O)N2C[C@H](O)C[C@H]2C(=O)NCc2ccc(-c3scnc3C)cc2)C(C)(C)C)cc1NC(=O)c1csc2ccccc12 [Example I-37] | 5.00 to 6.00
19 | Cc1cc([C@H](C)Nc2ccccc2C(=O)O)c2oc(N3CCN(C(=O)CCNc4cccc5c4C(=O)N(C4CCC(=O)NC4=O)C5=O)CC3)cc(=O)c2c1 (stereo partly drawn) [Example I-134] | 5.00 to 6.00
20 | Cc1ccccc1Nc1ncc(C(=O)NCCCNc2cccc3c2C(=O)N(C2CCC(=O)NC2=O)C3=O)cc1NC(=O)c1csc2ccccc12 (stereo not drawn) [Example I-51] | 6.30 to 7.00
21 | Cc1ccccc1Nc1ncc(C(=O)NCCCCCCC(=O)N[C@H](C(=O)N2C[C@H](O)C[C@H]2C(=O)NCc2ccc(-c3scnc3C)cc2)C(C)(C)C)cc1NC(=O)c1csc2ccccc12 [Example I-15] | 6.30 to 7.00
22 | Cc1ccccc1Nc1ncc(C(=O)NCCCC(=O)N[C@H](C(=O)N2C[C@H](O)C[C@H]2C(=O)N[C@@H](C)c2ccc(-c3scnc3C)cc2)C(C)(C)C)cc1NC(=O)c1csc2ccccc12 [Example I-57] | 6.00 to 6.30
23 | Cc1ccccc1Nc1ncc(C(=O)NCCOCCOCCC(=O)NCc2ccc3c(c2)CN(C2CCC(=O)NC2=O)C3=O)cc1NC(=O)c1csc2ccccc12 (stereo not drawn) [Example I-30] | 5.00 to 6.00

The remaining lines, values ahead:

Row | pIC50 | SMILES
24 | 6.30 to 7.00 | O=C1CCC(N2Cc3cc(C(=O)NCCCCCCCCCNC(=O)c4cc(NC(=O)c5cccc(F)c5)c5c(c4)C(=O)N[C@H]5c4cc(F)ccc4Cl)ccc3C2=O)C(=O)N1 (stereo partly drawn) [Example I-160]
25 | > 7.00 | O=C1CCC(N2Cc3cc(C(=O)NCCCCCCCCCNC(=O)c4cc(NC(=O)c5csc6ccccc56)c5c(c4)C(=O)NC5c4cc(F)ccc4Cl)ccc3C2=O)C(=O)N1 (stereo not drawn) [Example I-159]
26 | 5.00 to 6.00 | O=C1CCC(N2Cc3cc(C(=O)NCCOCCOCCOCCOCCOCCOCCOCCOCCOCCOCCOCCOCCNC(=O)c4cc(NC(=O)c5cc(F)cc(C(F)(F)F)c5)c5c(c4)C(=O)N[C@@H]5c4cc(F)ccc4Cl)ccc3C2=O)C(=O)N1 (stereo partly drawn) [Example I-153]
27 | 5.00 to 6.00 | NC(=O)CCCCCCCCCNC(=O)c1cc(NC(=O)c2cc(F)cc(C(F)(F)F)c2)c2c(c1)C(=O)N[C@H]2c1cc(F)ccc1Cl [Example I-79]
28 | 6.30 to 7.00 | Cc1ccccc1Nc1ncc(C(=O)NCCCCCC(=O)NCc2ccc3c(c2)C(=O)N(C2CCC(=O)NC2=O)C3)cc1NC(=O)c1csc2ccccc12 (stereo not drawn) [Example I-58]
29 | 6.00 to 6.30 | O=C1CCC(N2C(=O)c3ccc(NCCCCCCCNC(=O)c4cc(NC(=O)c5cc(F)cc(C(F)(F)F)c5)c5c(c4)C(=O)N[C@@H]5c4cc(F)ccc4Cl)cc3C2=O)C(=O)N1 (stereo partly drawn) [Example I-89]
30 | > 7.00 | O=C(CCCCCCCNC(=O)c1cc(NC(=O)c2cc(F)cc(C(F)(F)F)c2)c2c(c1)C(=O)N[C@H]2c1cc(F)ccc1Cl)NCc1ccc2c(c1)CN(C1CCC(=O)NC1=O)C2=O (stereo partly drawn) [Example I-93]
31 | > 7.00 | O=C1CCC(N2C(=O)c3ccc(NCCOCCOCCOCCOCCOCCOCCOCCOCCOCCOCCOCCOCCNC(=O)c4cc(NC(=O)c5cc(F)cc(C(F)(F)F)c5)c5c(c4)C(=O)N[C@H]5c4cc(F)ccc4Cl)cc3C2=O)C(=O)N1 (stereo partly drawn) [Example I-156]
32 | 6.30 to 7.00 | Cc1ncsc1-c1ccc([C@H](C)NC(=O)[C@@H]2C[C@@H](O)CN2C(=O)[C@@H](NC(=O)CCCCCCCCCNC(=O)c2cc(NC(=O)c3cc(F)cc(C(F)(F)F)c3)c3c(c2)C(=O)N[C@@H]3c2cc(F)ccc2Cl)C(C)(C)C)cc1 [Example I-81]
33 | 6.30 to 7.00 | O=C1CCC(N2Cc3cc(C(=O)NCCCCCCCNC(=O)c4cc(NC(=O)c5cc(F)cc(C(F)(F)F)c5)c5c(c4)C(=O)N[C@@H]5c4cc(F)ccc4Cl)ccc3C2=O)C(=O)N1 (stereo partly drawn) [Example I-80]
34 | 6.30 to 7.00 | Cc1ccccc1Nc1ncc(C(=O)NCCCCCCC(=O)NCc2ccc3c(c2)CN(C2CCC(=O)NC2=O)C3=O)cc1NC(=O)c1csc2ccccc12 (stereo not drawn) [Example I-19]
35 | > 7.00 | O=C1CCC(N2C(=O)c3ccc(NCCCNC(=O)c4cc(NC(=O)c5cc(F)cc(C(F)(F)F)c5)c5c(c4)C(=O)N[C@H]5c4cc(F)ccc4Cl)cc3C2=O)C(=O)N1 (stereo partly drawn) [Example I-98]
36 | > 7.00 | O=C1CCC(N2Cc3cc(C(=O)NCCCCCCCCNC(=O)c4cc(NC(=O)c5cccc(C(F)(F)F)c5)c5c(c4)C(=O)N[C@H]5c4cc(F)ccc4Cl)ccc3C2=O)C(=O)N1 (stereo partly drawn) [Example I-158]
37 | 6.30 to 7.00 | O=C1CCC(N2C(=O)c3ccc(NCCCNC(=O)c4cnc(Nc5cc(F)ccc5Cl)c(NC(=O)c5csc6ccccc56)c4)cc3C2=O)C(=O)N1 (stereo not drawn) [Example I-99]
38 | 5.00 to 6.00 | O=C1CCC(N2Cc3cc(C(=O)NCCCCCCCCNC(=O)c4cc(NC(=O)c5cccc(C(F)(F)F)c5)c5c(c4)C(=O)N[C@@H]5c4cc(F)ccc4Cl)ccc3C2=O)C(=O)N1 (stereo partly drawn) [Example I-150]
39 | 6.30 to 7.00 | Cc1ccccc1Nc1ncc(C(=O)NCCCCCCCCNc2ccc3c(c2)C(=O)N(C2CCC(=O)NC2=O)C3=O)cc1NC(=O)c1csc2ccccc12 (stereo not drawn) [Example I-16]
40 | > 7.00 | O=C1CCC(N2Cc3cc(C#CCNC(=O)c4cc(NC(=O)c5cc(F)cc(C(F)(F)F)c5)c5c(c4)C(=O)N[C@H]5c4cc(F)ccc4Cl)ccc3C2=O)C(=O)N1 (stereo partly drawn) [Example I-110]
41 | 6.30 to 7.00 | O=C1CCC(N2Cc3cc(C(=O)NCCCCCCCNC(=O)c4cnc(Nc5cc(F)ccc5Cl)c(NC(=O)c5csc6ccccc56)c4)ccc3C2=O)C(=O)N1 (stereo not drawn) [Example I-66]
42 | 6.30 to 7.00 | O=C1CCC(N2Cc3cc(C(=O)NCCCCCCCCCCNC(=O)c4cc(NC(=O)c5cccc(C(F)(F)F)c5)c5c(c4)C(=O)N[C@H]5c4cc(F)ccc4Cl)ccc3C2=O)C(=O)N1 (stereo partly drawn) [Example I-152]
43 | 6.00 to 6.30 | O=C1CCC(N2C(=O)c3ccc(NCCCCCNC(=O)c4cc(NC(=O)c5cc(F)cc(C(F)(F)F)c5)c5c(c4)C(=O)N[C@@H]5c4cc(F)ccc4Cl)cc3C2=O)C(=O)N1 (stereo partly drawn) [Example I-75]
44 | > 7.00 | O=C1CCC(N2C(=O)c3ccc(NCCCCCNC(=O)c4cc(NC(=O)c5cc(F)cc(C(F)(F)F)c5)c5c(c4)C(=O)N[C@H]5c4cc(F)ccc4Cl)cc3C2=O)C(=O)N1 (stereo partly drawn) [Example I-85]
45 | 5.00 to 6.00 | O=C1CCC(N2Cc3cc(C(=O)NCCCCCCCCCCNC(=O)c4cc(NC(=O)c5cccc(C(F)(F)F)c5)c5c(c4)C(=O)N[C@@H]5c4cc(F)ccc4Cl)ccc3C2=O)C(=O)N1 (stereo partly drawn) [Example I-154]
46 | > 7.00 | O=C(O)CCCCCCCCCNC(=O)c1cc(NC(=O)c2cc(F)cc(C(F)(F)F)c2)c2c(c1)C(=O)N[C@@H]2c1cc(F)ccc1Cl [Example I-76]
47 | 6.30 to 7.00 | O=C1CCC(N2C(=O)c3ccc(NCCCNC(=O)c4cc(NC(=O)c5cc(F)cc(C(F)(F)F)c5)c5c(c4)C(=O)N[C@@H]5c4cc(F)ccc4Cl)cc3C2=O)C(=O)N1 (stereo partly drawn) [Example I-96]
48 | > 7.00 | O=C1CCC(N2Cc3cc(C(=O)NCCCCCCCNC(=O)c4cc(NC(=O)c5cc(F)cc(C(F)(F)F)c5)c5c(c4)C(=O)N[C@H]5c4cc(F)ccc4Cl)ccc3C2=O)C(=O)N1 (stereo partly drawn) [Example I-77]
